Experimental data: patent publication US7112598B2, “κ opioid receptor agonist comprising 2-phenylbenzothiazoline derivative” (Santen Pharmaceutical Co., Ltd., priority 2002, dated 2006)
Structures can show the parent of a compound that is named as a salt.

system: mouse acetic acid writhing; assay: Antinociceptive action test by mouse acetic acid writhing method; assay type: in vivo; details: 30 mg/kg oral, 20 min before 0.7% acetic acid i.p., writhing counted 10 to 20 minutes after acetic acid, vs vehicle group, average of seven samples
Description: 2. Antinociceptive Action Tests by Mouse Acetic Acid Writhing Method
Accordingly, antinociceptive action tests of test compounds were carried out using the mouse acetic acid writhing method, and analgesic effects of the test compounds were evaluated.
Twenty minutes after oral administration of the test compound (30 mg/kg), the 0.7% acetic acid solution was administered intraperitoneally in a rate of 0.1 ml per 10 g of mouse weight.
Inhibition rates were calculated according to the following equation.
The antinociceptive action of the test compound was expressed in an inhibition rate to writhing numbers of a vehicle group.

Row | Compound | Inhibition rate (%)
1 | COc1ccc(OC(C)CCN(CCO)C(C)C)c(C2Sc3cc(Cl)ccc3N2C(C)=O)c1 (stereo not drawn) [Compound No. 7-2, 3-Acetyl-6-chloro-2-[2-(3-(N-(2-hydroxyethyl)-N-isopropylamino)-1-methylpropoxy)-5-methoxyphenyl]benzothiazoline Hydrochloride] | 70.0

same assay, conditions: 30 mg/kg oral, 20 min before 0.7% acetic acid i.p., writhing counted 10 to 20 minutes after acetic acid, vs vehicle group, average of seven samples, read-out: Inhibition rate (%)

Row | Compound | inhibition in vivo at 30 mg/kg [%]
2 | CCOCCN(CCCOc1ccc(OC)cc1C1Sc2ccccc2N1C(C)=O)C(C)C (single isomer, unassigned; (+)) [Compound No. 11-1, (+)-3-Acetyl-2-[2-(3-(N-(2-ethoxyethyl)-N-isopropylamino)propoxy)-5-methoxyphenyl]benzothiazoline Hydrochloride] | 98.3
3 | COCCN(CCCOc1ccc(OC)cc1C1Sc2cc(Cl)ccc2N1C(C)=O)C(C)C.Cl (single isomer, unassigned; (+)) [Compound No. 9-1, (+)-3-Acetyl-6-chloro-2-[2-(3-(N-isopropyl-N-(2-methoxyethyl)amino)-propoxy)-5-methoxyphenyl]benzothiazoline Hydrochloride] | 97.7

biological target: human κ opioid receptor (Homo sapiens, UniProt P41145); assay: κ opioid receptor agonist activity test in GTP binding activity measurement system ([35S]GTPγS binding); assay type: biochemical; details: test compound concentration 10^−9 M; binding of 10^−6 M (−)-U50488 = 100%; human κ opioid receptor membrane preparation; average of duplicate
Sequence (P41145 whole entry): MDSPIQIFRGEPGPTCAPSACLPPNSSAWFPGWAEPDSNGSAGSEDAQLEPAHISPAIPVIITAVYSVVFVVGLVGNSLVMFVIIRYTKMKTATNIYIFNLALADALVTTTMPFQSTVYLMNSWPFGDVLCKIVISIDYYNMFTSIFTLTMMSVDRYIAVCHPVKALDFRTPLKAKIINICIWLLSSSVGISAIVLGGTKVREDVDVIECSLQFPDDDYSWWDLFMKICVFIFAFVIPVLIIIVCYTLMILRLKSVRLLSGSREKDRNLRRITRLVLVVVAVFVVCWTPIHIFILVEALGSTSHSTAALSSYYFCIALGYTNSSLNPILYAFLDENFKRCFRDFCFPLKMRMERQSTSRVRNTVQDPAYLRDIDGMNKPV
Description: 1. κ Opioid Receptor Agonist Activity Tests in GTP Binding Activity Measurement System
Jinmin Zhu et al. reported a method of evaluating agonist activities of drugs on a κ opioid receptor wherein guanosine 5′-triphosphate (GTP) radiolabelled with a human κ opioid receptor is used in J. Pharmaco. Exp. Ter., 282, 676–684 (1997). κ opioid receptor agonist activities (actions) of test compounds were evaluated according to the method described in the above-mentioned literature.
N-2-Hydroxyethylpiperazine-N′-2-ethanesulfonic acid (HEPES, 4.77 g), magnesium chloride hexahydrate (2.03 g), sodium chloride (5.84 g), disodium […] (EDTA•2Na, 0.37 g), DL-dithiothreitol (DTT, 0.15 g) and bovine serum albumin (BSA, 1.0 g) were dissolved in ultrapure water, pH was adjusted to 7.4 with sodium hydroxide, and further ultrapure water was added to the mixture so that a total amount was one liter to prepare a incubation buffer.
Nine volume of the incubation buffer was added to one volume of dimethyl sulfoxide (DMSO) to prepare a 10% DMSO-incubation buffer.
Tris(hydroxymethyl)aminomethane hydrochloride (TRIZA-HCl, 66.1 g) and Tris(hydroxymethyl)aminomethane (TRIZA-Base, 9.7 g) were dissolved in ultrapure water so that a total amount was 10 liters to prepare a 50 mM Tris-hydrochloric acid buffer (pH 7.4).
A human κ opioid receptor membrane preparation (100 unit/ml) was diluted 60 times with the incubation buffer under ice-cold to prepare a human κ opioid receptor membrane preparation solution. The membrane preparation solution was preserved under ice-cold.
A test compound was dissolved in 100% DMSO to prepare a 10^−3 M test compound solution, and then the incubation buffer was added to the 10^−3 M test compound solution to prepare a 10^−4 M test compound solution. Next, the 10% dimethyl sulfoxide-incubation buffer was added to the 10^−4 M test compound solution to prepare a 10^−5 M, 10^−6 M, 10^−7 M, 10^−8 M or 10^−9 M test compound solution.
A drug (−)-U50488 (J. Pharmacol. Exp. Ther., 224, 7–12 (1983)), which is known as a κ opioid receptor agonist, was used as a positive control drug in the tests.
(−)-U-50488 was dissolved in 100% DMSO to prepare a 10^−3 M positive control drug solution, and then the incubation buffer was added to the 10^−3 M positive control drug solution to prepare a 10^−4 M positive control drug solution. Next, the 10% DMSO-incubation buffer was added to the 10^−4 M positive control drug solution to prepare a 10^−6 M positive control drug solution.
GDP was dissolved in ultrapure water to prepare a 10^−3 M GDP solution, and the incubation buffer was added to the 10^−3 M GDP solution to prepare a 10^−5 M GDP solution.
10^−3 M [^35S]GTPγS was diluted with the incubation buffer to prepare 10^−9 M radiolabelled reagent.
• 1. The incubation buffer (50 μl), the 10^−5 M GDP solution (50 μl), the human κ opioid receptor membrane preparation solution (300 μl), the test compound solution and the 10^−9 M radiolabelled reagent (50 μl) were put into a glass tube, and then the mixture was incubated at 30° C. for 60 minutes. • 2. The 50 mM Tris-hydrochloric acid buffer (pH 7.4) was added to the mixture to stop the reaction, the reaction mixture was suction-filtered with a GF/B filter, and then the residue on the GF/B filter was washed with the 50 mM Tris-hydrochloric acid buffer (3 ml) three times. • 3. The GF/B filter was air-dried, and then the residue on the GF/B filter was taken out with an antomatic dispenser and transfered into a vial. • 4. Scintisol EX-H (5 ml) was introduced into the vial to prepare a sample solution, and then radioactivity in the sample solution was measured with a liquid scintillation counter for one minute. The radioactivity was expressed in “cpm” (counts per minute). Calculation Formula of κ Opioid Receptor Agonist Activity
Each agonist activity of the test compound on the κ opioid receptor was expressed in [^35S]GTPγS binding % when [^35S]GTPγS binding of 10^−6 M (−)-U50488 was 100%. […]

Row | Compound | [^35S]GTP γ S binding % [%]
4 | COc1ccc(OCCCN(CCO)C(C)C)c(C2Sc3ccccc3N2C(C)=O)c1 (single isomer, unassigned; (+)) [Compound No. 11-3, (+)-3-Acetyl-2-[2-(3-(N-(2-hydroxyethyl)-N-isopropylamino)-propoxy)-5-methoxyphenyl]benzothiazoline Hydrochloride] | 85.1
5 | COc1ccc(OCCCN2CCC[C@H]2CO)c(C2Sc3cc(Cl)ccc3N2C(C)=O)c1 (stereo partly drawn) [Compound No. 3-12, 3-Acetyl-6-chloro-2-[2-(3-((2S)-2-hydroxymethylazolan-1-yl)propoxy)-5-methoxyphenyl]benzothiazoline Hydrochloride] | 75.6
6 | CCN(CCCOc1ccc(OC)cc1C1Sc2cc(Cl)ccc2N1C(C)=O)C(C)C (single isomer, unassigned; (+)) [Compound No. 9-10, (+)-3-Acetyl-6-chloro-2-[2-(3-(N-ethyl-N-isopropylamino)propoxy)-5-methoxyphenyl]benzothiazoline Hydrochloride] | 116.8
7 | COc1ccc(OCCCN(CCO)C(C)C)c(C2Sc3ccc(C(F)(F)F)cc3N2C(C)=O)c1 (stereo not drawn) [Compound No. 4-2, 3-Acetyl-2-[2-(3-(N-(2-hydroxyethyl)-N-isopropylamino)propoxy)-5-methoxyphenyl]-5-trifluoromethylbenzothiazoline Hydrochloride] | 65.1
8 | COc1ccc(OC(C)CCN(CCO)C(C)C)c(C2Sc3cc(Cl)ccc3N2C(C)=O)c1 (stereo not drawn) [Compound No. 7-2, 3-Acetyl-6-chloro-2-[2-(3-(N-(2-hydroxyethyl)-N-isopropylamino)-1-methylpropoxy)-5-methoxyphenyl]benzothiazoline Hydrochloride] | 62.9
9 | COc1ccc(OCCCN(C)CCO)c(C2Sc3cc(Cl)ccc3N2C(C)=O)c1 (single isomer, unassigned; (+)) [Compound No. 9-16, (+)-3-Acetyl-6-chloro-2-[2-(3-(N-(2-hydroxyethyl)-N-methylamino)-propoxy)-5-methoxyphenyl]benzothiazoline Hydrochloride] | 57.2
10 | COc1ccc(OCCCN2CC[C@H](O)C2)c(C2Sc3cc(Cl)ccc3N2C(C)=O)c1 (stereo partly drawn) [Compound No. 3-14, 3-Acetyl-6-chloro-2-[2-(3-((3S)-hydroxyazolan-1-yl)propoxy)-5-methoxyphenyl]benzothiazoline Hydrochloride] | 59.8
11 | COc1ccc(OCCCN(CCO)CC(C)C)c(C2Sc3cc(Cl)ccc3N2C(C)=O)c1 (stereo not drawn) [Compound No. 3-11, 3-Acetyl-6-chloro-2-[2-(3-(N-(2-hydroxyethyl)-N-(2-methylpropyl)-amino)propoxy)-5-methoxyphenyl]benzothiazoline Hydrochloride] | 53.7
12 | COc1ccc(OCCCN(C(C)C)C(C)C)c(C2Sc3cc(Cl)ccc3N2C(C)=O)c1 (single isomer, unassigned; (+)) [Compound No. 9-11, (+)-3-Acetyl-6-chloro-2-[2-(3-(N,N-diisopropylamino)propoxy)-5-methoxyphenyl]benzothiazoline Hydrochloride] | 55.0
13 | COc1ccc(OCCCN(Cc2cccs2)C(C)C)c(C2Sc3cc(Cl)ccc3N2C(C)=O)c1 (single isomer, unassigned; (+)) [Compound No. 9-4, (+)-3-Acetyl-6-chloro-2-[2-(3-(N-isopropyl-N-(thiophen-2-ylmethyl)-amino)propoxy)-5-methoxyphenyl]benzothiazoline Hydrochloride] | 72.1

same assay, conditions: test compound concentration 10^−9 M; binding of 10^−6 M (−)-U50488 = 100%; human κ opioid receptor membrane preparation; average of duplicate; Hydrochloride

Row | Compound | [^35S]GTP γ S binding % [%]
14 | COc1ccc(OCCCN(Cc2ccco2)C(C)C)c(C2Sc3cc(Cl)ccc3N2C(C)=O)c1 (single isomer, unassigned; (+)) [Compound No. 9-5, (+)-3-Acetyl-6-chloro-2-[2-(3-(N-(furan-2-ylmethyl)-N-isopropylamino)propoxy)-5-methoxyphenyl]benzothiazoline Hydrochloride] | 132.5
15 | COCCN(CCCOc1ccc(OC)cc1C1Sc2cc(Cl)ccc2N1C(C)=O)C(C)C.Cl (single isomer, unassigned; (-)) [Compound No. 10-1, (−)-3-Acetyl-6-chloro-2-[2-(3-(N-isopropyl-N-(2-methoxyethyl)amino)-propoxy)-5-methoxyphenyl]benzothiazoline Hydrochloride] | 50.5
16 | COCCN(CCCOc1ccc(OC)cc1C1Sc2cc(Cl)ccc2N1C(C)=O)C(C)C.Cl (single isomer, unassigned; (+)) [Compound No. 9-1, (+)-3-Acetyl-6-chloro-2-[2-(3-(N-isopropyl-N-(2-methoxyethyl)amino)-propoxy)-5-methoxyphenyl]benzothiazoline Hydrochloride] | 93.2
17 | COc1ccc(OCCCN(Cc2ccco2)C(C)C)c(C2Sc3cc(Cl)ccc3N2C(C)=O)c1 (stereo not drawn) [Compound No. 3-38, 3-Acetyl-6-chloro-2-[2-(3-(N-(furan-2-ylmethyl)-N-isopropylamino)-propoxy)-5-methoxyphenyl]benzothiazoline Hydrochloride] | 58.4
18 | CCOCCN(CCCOc1ccc(OC)cc1C1Sc2cc(Cl)ccc2N1C(C)=O)C(C)C (single isomer, unassigned; (-)) [Compound No. 10-3, (−)-3-Acetyl-6-chloro-2-[2-(3-(N-(2-ethoxyethyl)-N-isopropylamino)-propoxy)-5-methoxyphenyl]benzothiazoline Hydrochloride] | 55.7
19 | COc1ccc(OCCCN(CCO)C(C)C)c(C2Sc3cc(Cl)ccc3N2C(C)=O)c1 (single isomer, unassigned; (-)) [Compound No. 10-2, (−)-3-Acetyl-6-chloro-2-[2-(3-(N-(2-hydroxyethyl)-N-isopropylamino)-propoxy)-5-methoxyphenyl]benzothiazoline Hydrochloride] | 65.8

same assay, conditions: test compound concentration 10^−9 M; binding of 10^−6 M (−)-U50488 = 100%; human κ opioid receptor membrane preparation; average of duplicate; read-out: [^35S]GTP γ S binding %

Row | activation at 0.001 µM [%] | Compound
20 | 103 | COCCN(CCCOc1ccc(OC)cc1C1Sc2ccccc2N1C(C)=O)C(C)C (stereo not drawn) [Compound No. 8-1, 3-Acetyl-2-[2-(3-(N-isopropyl-N-(2-methoxyethyl)amino)propoxy)-5-methoxyphenyl]benzothiazoline Hydrochloride]
21 | 66.8 | CCOCCN(CCCOc1ccc(OC)cc1C1Sc2ccccc2N1C(C)=O)C(C)C (single isomer, unassigned; (+)) [Compound No. 11-1, (+)-3-Acetyl-2-[2-(3-(N-(2-ethoxyethyl)-N-isopropylamino)propoxy)-5-methoxyphenyl]benzothiazoline Hydrochloride]
